What was measured:
[1] = tested on: HIV-infected peripheral blood mononuclear cells; experiment: Apoptotic DNA fragmentation by TUNEL in single-donor non-replenished PBMC cultures; assay type: cell-based, human; settings: 200 μM deferiprone
Protocol: Fig 2 Effect of deferiprone in HIV-infected primary cells: Apoptotic DNA fragmentation, deoxyhypusyl-eIF5A accumulation, and DOHH activity. Apoptotic DNA fragmentation (Panel A) was detected by terminal deoxynucleotide transferase dUTP nick end labeling (TUNEL) of single-donor peripheral blood mononuclear cells, maintained in short-term non-replenished cultures as described. Cells were left uninfected and/or untreated; or infected immediately after plating with clinical HIV-1 isolate and 12 hours after infection, treated with 200 μM deferiprone. […] The dose-effect curve for inhibition of cellular DOHH by increasing deferiprone concentrations in short-term non-replenished single-donor cultures (Panel C) was calculated from the accumulation of its ^3H-labeled substrate and the decrease of its ^3H-labeled product; error bars are at the size of the graph symbols and not shown. […]
Cell-free supernatants were used for p24 and HIV-1 RNA measurements. p24 core antigen in the supernatant was quantified by ELISA (Retrotek HIV-1 p24®; ZeptoMetrix Corp.; Buffalo, NY). HIV-1 RNA copy number in the supernatant of PBMC cultures and in plasma of trial subjects enrolled in the exploratory deferiprone trial was determined with a PCR-based and FDA-approved assay (Amplicor HIV-1 Monitor®; Roche Diagnostics Corp.; Indianapolis, IN). […]

[2] = tested on: HIV-1 clinical isolate in PBMCs; experiment: p24 core antigen ELISA in supernatant of isolate-infected, long-term replenished primary cell cultures; assay type: cell-based; settings: for p24, level relative to untreated controls: after two weeks, stably infected replenished primary cell cultures
Protocol: Cell-free supernatants were used for p24 and HIV-1 RNA measurements. p24 core antigen in the supernatant was quantified by ELISA (Retrotek HIV-1 p24®; ZeptoMetrix Corp.; Buffalo, NY). HIV-1 RNA copy number in the supernatant of PBMC cultures and in plasma of trial subjects enrolled in the exploratory deferiprone trial was determined with a PCR-based and FDA-approved assay (Amplicor HIV-1 Monitor®; Roche Diagnostics Corp.; Indianapolis, IN). For clinical samples, the assay was used per the Standard Specimen Processing Procedure (sensitivity limit 400 copies/ml); for cell culture samples, the assay was used in both the Standard Specimen Processing and the UltraSensitive Specimen Processing Procedure (sensitivity limit 50 copies/ml). If not specified further, the term “log10” designates the amount of HIV-1 RNA in the dimensions [log10 / ml]. The Roche Amplicor HIV-1 DNA Test (Roche Diagnostics Corp.; Indianapolis, IN) was used for detection of HIV-1 DNA with the primer pair SK431/462, which amplifies a highly conserved region of the gag genome of HIV-1 subtype B DNA. Results are shown per the assay’s optical readings of a chromogenic reaction that relates absorbance at 450 nm to the HIV-1 DNA copy number and is calibrated by assay-internal copy controls (A450 < 0.350, HIV-1 DNA absent; A450 ≥ 3.0, HIV-1 DNA present in excess of 20 copies; A450 between 0.350 and 3.0, HIV-1 DNA copy number per copy controls). Apoptotic DNA fragmentation was quantified flow-cytometrically, using a terminal deoxynucleotide transferase dUTP nick end-labeling (TUNEL) assay (APO-BRDU™; Phoenix Flow Systems; San Diego, CA). All experiments and assays were performed at least in duplicate.
(§1) The antiretroviral activity of deferiprone was tested in primary cultures of PBMCs, infected in vitro with clinical isolate or mock-infected with clinical isolate-identical cell- and virus-free medium as described. Briefly, to approximate the bi-compartmental mode of HIV-1 infection in vivo, which comprises a cell-generative compartment that provides non-infected but HIV-1 susceptible cells, and an HIV-generative compartment in which they become infected, the cultures were replenished as described with freshly obtained uninfected primary cells and medium at regular intervals, assuring identical cell number in both the treated and control cultures by computerized trypan blue exclusion analysis (Vi-CELL™; Beckman Coulter, Miami, FL); deferiprone concentrations were adjusted as indicated. This model allowed for months-long monitoring of HIV-1 parameters in productively infected cultures.

[3] = tested on: HIV-1 DNA; experiment: HIV-1 DNA (Roche Amplicor HIV-1 DNA Test) in isolate-infected primary cell cultures; assay type: cell-based; settings: 200 μM deferiprone
Protocol: Cell-free supernatants were used for p24 and HIV-1 RNA measurements. p24 core antigen in the supernatant was quantified by ELISA (Retrotek HIV-1 p24®; ZeptoMetrix Corp.; Buffalo, NY). HIV-1 RNA copy number in the supernatant of PBMC cultures and in plasma of trial subjects enrolled in the exploratory deferiprone trial was determined with a PCR-based and FDA-approved assay (Amplicor HIV-1 Monitor®; Roche Diagnostics Corp.; Indianapolis, IN). For clinical samples, the assay was used per the Standard Specimen Processing Procedure (sensitivity limit 400 copies/ml); for cell culture samples, the assay was used in both the Standard Specimen Processing and the UltraSensitive Specimen Processing Procedure (sensitivity limit 50 copies/ml). If not specified further, the term “log10” designates the amount of HIV-1 RNA in the dimensions [log10 / ml]. […] Results are shown per the assay’s optical readings of a chromogenic reaction that relates absorbance at 450 nm to the HIV-1 DNA copy number and is calibrated by assay-internal copy controls (A450 < 0.350, HIV-1 DNA absent; A450 ≥ 3.0, HIV-1 DNA present in excess of 20 copies; A450 between 0.350 and 3.0, HIV-1 DNA copy number per copy controls). Apoptotic DNA fragmentation was quantified flow-cytometrically, using a terminal deoxynucleotide transferase dUTP nick end-labeling (TUNEL) assay (APO-BRDU™; Phoenix Flow Systems; San Diego, CA). […]

[4] = in vitro; assay type: cell-based; settings: human
Protocol: as §1

With `Cc1c(O)c(=O)ccn1C` [deferiprone, 3-hydroxy-1,2-dimethylpyridin-4-one] the “DNA fragmentation in infected treated relative to infected untreated cultures” value ([1]; at 120 hours) was “twice”, the “DNA fragmentation in infected treated relative to infected untreated cultures” value ([1]; at 144 hours, P = 0.001) was “three times as high” and the “p24 after escalation of concentration” value ([2]; 50 μM for 30 days followed by escalation to 200 μM (data not shown)) was “complete suppression of p24 within one week”. The p24 on-drug ([2]; 100 μM deferiprone) was “declined to the limit of detectability”, the “p24, level relative to untreated controls” value ([2]; 100 μM deferiprone) was at most 10% and the “p24, level relative to untreated controls” value ([2]; 200 μM deferiprone) was at most 10%. For the same compound, the “extracellular p24 after deferiprone withdrawal” value ([2]; after 100 μM deferiprone) was “increased rapidly to levels higher than pre-treatment”, the p24 off-drug ([2]; after 200 μM deferiprone) was “did not rebound off-drug” and the p24 expression ([2]; below 100 μM deferiprone) was “only marginally affected”. For the same compound, the “decline of HIV-1 DNA” value [3] was “reached the lower limit of detectability”, the “final A450 readings of the HIV-1 DNA test” value ([3]; 10 days off-drug) was “negative for the continued presence of HIV-1 DNA” and the viability at 200 µM [4] was at least 95%. The viability at 200 μM [4] was over 95%.

Source: PMC4871512, “Drug-Based Lead Discovery: The Novel Ablative Antiretroviral Profile of Deferiprone in HIV-1-Infected Cells and in HIV-Infected Treatment-Naive Subjects of a Double-Blind, Placebo-Controlled, Randomized Exploratory Trial” (PLoS ONE, 2016)
